The target of the test is T1, Human MAT2A (Homo sapiens, UniProt P31153).
T1 construct: Human MAT2A: Cepter, amino acids 1-395 Clone ID 334, lot 00023-148; purchased Cepter clone ID 334, lot 00023-148
T1 sequence (P31153 whole entry, the tested form may be a part): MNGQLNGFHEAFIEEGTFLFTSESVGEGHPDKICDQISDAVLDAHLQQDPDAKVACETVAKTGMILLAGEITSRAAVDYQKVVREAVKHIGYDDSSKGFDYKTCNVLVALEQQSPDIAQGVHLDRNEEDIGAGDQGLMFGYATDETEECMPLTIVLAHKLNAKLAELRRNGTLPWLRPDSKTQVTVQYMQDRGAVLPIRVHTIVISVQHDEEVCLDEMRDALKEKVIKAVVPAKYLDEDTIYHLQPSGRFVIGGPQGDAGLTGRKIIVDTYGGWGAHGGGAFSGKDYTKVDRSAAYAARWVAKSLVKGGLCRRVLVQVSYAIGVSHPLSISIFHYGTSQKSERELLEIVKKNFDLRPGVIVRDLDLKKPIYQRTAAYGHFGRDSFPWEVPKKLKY
Description: Phosphate Sensor Fluorescence Assay (Biologic Example A). The class given is biochemical. Particulars: MAT2A inhibition, Biological Example A procedure (Compounds 1.001-1.028); 500 uM L-methionine, 500 uM ATP. As for the experimental part:
The ability of the compound of present disclosure to inhibit MAT2A enzyme was determined using a Phosphate Sensor Fluorescence Assay described below.
Biologic Example A. Phosphate Sensor Fluorescence Assay
MAT2A enzyme is incubated with a test compound in DMSO or DMSO and its substrates (L-methionine and ATP) in a microtiter plate. The enzymatic reaction is stopped by the addition of Working Phosphate Sensor Mixture. The plate is analyzed for fluorescence at 450 nm. The high control (DMSO with enzyme and its substrates) gives high fluorescence which represents no inhibition of enzymatic activity while the low control (DMSO with MAT2A substrates and no enzyme) gives low fluorescence which represents full inhibition of enzymatic activity.
• Human MAT2A: Cepter, amino acids 1-395 • Tris, pH 7.5: Invitrogen cat #15567-027 • KCl: Ambion cat #AM9640G • MgCl2: Ambion cat #AM9530G • Brij-35: Sigma cat B4184-10ML • DTT: Goldbio cat #DTT100 • BGG: Sigma cat #G5009-25G • PNP: Novus Biologicals cat #NBP1-50872 • 7-MEG: Cayman Chemical cat #15988 • L-Methionine: Alfa Aesar cat #J61904 • ATP: Alfa Aesar cat #J60336 • Phosphate Sensor: Thermo Fisher cat #PV4407 • EDTA: Life Tech cat #15575-038 • Assay plate: 384-well black polypropylene plate: Thomas Scientific cat #1149Q35
• Assay Buffer: 50 mM Tris, pH 7.5/50 mM KCl/10 mM MgCl2/0.01% Brij-35/1 mM DTT/0.1% BGG/40 nM PNP/6 uM 7-MEG • MAT2A: 10 nM for Cepter clone ID 329, lot 00023-123 before the addition of Working Phosphate Sensor Mixture • 5 nM for Cepter clone ID 334, lot 00023-148 before the addition of Working Phosphate Sensor Mixture • L-methionine: 500 uM before the addition of Working Phosphate Sensor Mixture • ATP: 500 uM before the addition of Working Phosphate Sensor Mixture
For the assay, a mixture of 1 mM L-methionine/1 mM ATP (2× final pre-stopped concentration) in assay buffer; MAT2A (2× final pre-stopped concentration) in Assay Buffer and Working Phosphate Sensor Mixture (1.5 uM Phosphate Sensor/30 mM EDTA in Assay Buffer, which is 3× final concentrations) were prepared. Test compounds or DMSO were added to the appropriate well suing D300e digital dispenser. 5 μl/well of Assay Buffer was added to the wells corresponding to the negative control and 5 μl/well of MAT2A was added to all the wells except for those corresponding to the negative control. After incubating the plate at room temperature for 15 minutes, 5 μl/well of the 1 mM L-methionine/1 mM ATP mixture was added to all wells. The plate was centrifuged at 1000 rpm for 1 minute and then incubated at room temperature for 1 hour. 5 μl of the Working Phosphate Sensor Mixture was added to all wells and the plate was centrifuged at 1000 rpm for 1 minute. The plate was read for fluorescence at 450 nm after exciting at 430 nm.
Percent inhibition was calculated in Chemical and Biological Information System (CBIS), (ChemInnovation Software Inc.). Curves were fitted by CBIS as % inhibition vs. log [compound concentration] using a 4-parameter inhibition model.
Fit=(A+((B−A)/(1+((C/x)^D))))
Compounds 1.001-1.028 were tested using the procedure described in Bioogical Example A, described above. Compounds 1.029-1.070 were tested using the procedure described in Biological Example B, described above.
In turn, `CNc1nc(=O)n(Cc2c[nH]cn2)c2cc(C3CC3)ccc12` [1.004, 1-((1H-Imidazol-4-yl)methyl)-7-cyclopropyl-4-(methylamino)quinazolin-2(1H)-one] returned an IC50 of 10 to 200 nM.

Regarding `CNc1nc(=O)n(Cc2c[nH]nn2)c2cc(C(F)(F)F)ccc12` [1.005, 1-((1H-1,2,3-triazol-4-yl)methyl)-4-(methylamino)-7-(trifluoromethyl)quinazolin-2(1H)-one], the IC50 lay in the range of 1000 to 10000 nM.

In turn, `CNc1nc(=O)n(Cc2c[nH]nn2)c2cc(C3CC3)ccc12` [1.006, 1-((1H-1,2,3-triazol-4-yl)methyl)-7-cyclopropyl-4-(methylamino)quinazolin-2(1H)-one] gave an IC50 of 1000 to 10000 nM.

The compound `CNc1nc(=O)n(Cc2c[nH]c(C(F)(F)F)n2)c2cc(C(F)(F)F)ccc12` [1.010, 4-(methylamino)-7-(trifluoromethyl)-1-((2-(trifluoromethyl)-1H-imidazol-4-yl)methyl)quinazolin-2(1H)-one] displayed an IC50 of 1000 to 10000 nM.

`CC(c1c[nH]cn1)n1c(=O)nc(N2CC[C@H](CO)C2)c2ccc(C(F)(F)F)cc21` (stereo partly drawn) [1.011, 1-(1-(1H-imidazol-4-yl)ethyl)-4-((S)-3-(hydroxymethyl)pyrrolidin-1-yl)-7-(trifluoromethyl)quinazolin-2(1H)-one] had a half-maximal inhibitory concentration (IC50) of 10 to 200 nM.

Regarding `CC(c1c[nH]cn1)n1c(=O)nc(N(C)C)c2ccc(C(F)(F)F)cc21` (stereo not shown) [1.015, 1-(1-(1H-imidazol-4-yl)ethyl)-4-(dimethylamino)-7-(trifluoromethyl)quinazolin-2(1H)-one], the IC50 lay in the range of 10 to 200 nM.

Take `CC(c1c[nH]cn1)n1c(=O)nc(N)c2ccc(C(F)(F)F)cc21` (stereo not shown) [1.018, 1-(1-(1H-imidazol-4-yl)ethyl)-4-amino-7-(trifluoromethyl)quinazolin-2(1H)-one]: the IC50 lay within 10 to 200 nM.

The term IC50 denotes the midpoint of a concentration-inhibition curve. A lower IC50 goes with higher potency.

Source of the values: patent US20240208965A1, “HETEROARYL ALKYLENE SUBSTITUTED 2-OXOQUINAZOLINE DERIVATIVES AS METHIONINE ADENOSYLTRANSFERASE 2A INHIBITORS” (IDEAYA BIOSCIENCES, INC., priority 2020, published 2024).
